Measurements from patent US10144730B2, “Inhibitors of c-Jun-N-terminal kinase (JNK)” (Dana-Farber Cancer Institute, Inc., priority 2011, dated 2018).
pIC50: −log10 of the molar value.

What was measured:
[1] = molecular target: panel of 442 distinct kinases; test: KINOMEscan kinase-binding panel; conditions: screening concentration of 1 μM
AKT2 = AKT2 (Homo sapiens, UniProt P31751); test: AKT2 follow-up enzymatic assay; type: biochemical; conditions: follow-up enzymatic assay (FIG. 12)
Text: This high in vitro selectivity however differed markedly from the large number of targets detected by KiNativ.

JNK1 = JNK1 (Homo sapiens, UniProt P45983); test: Biochemical JNK1 kinase inhibition (Z'-lyte format); conditions: Table 2
JNK1, sequence (P45983 whole entry): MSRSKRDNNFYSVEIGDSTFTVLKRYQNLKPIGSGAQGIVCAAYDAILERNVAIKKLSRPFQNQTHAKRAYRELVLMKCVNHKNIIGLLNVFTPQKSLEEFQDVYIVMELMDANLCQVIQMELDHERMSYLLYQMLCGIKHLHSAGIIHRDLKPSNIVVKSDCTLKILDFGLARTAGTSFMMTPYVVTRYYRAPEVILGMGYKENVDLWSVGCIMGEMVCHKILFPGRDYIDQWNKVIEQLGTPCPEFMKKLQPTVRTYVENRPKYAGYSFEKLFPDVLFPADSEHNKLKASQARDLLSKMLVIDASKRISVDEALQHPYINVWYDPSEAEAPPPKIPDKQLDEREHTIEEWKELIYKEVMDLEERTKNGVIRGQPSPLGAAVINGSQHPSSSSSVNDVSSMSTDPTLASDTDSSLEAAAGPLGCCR

IRAK1 = IRAK1 (Homo sapiens, UniProt P51617); test: IRAK1 biochemical kinase assay; conditions: biochemical / follow-up enzymatic assay; read-out: IC50 against IRAK1
IRAK1, sequence (P51617 whole entry): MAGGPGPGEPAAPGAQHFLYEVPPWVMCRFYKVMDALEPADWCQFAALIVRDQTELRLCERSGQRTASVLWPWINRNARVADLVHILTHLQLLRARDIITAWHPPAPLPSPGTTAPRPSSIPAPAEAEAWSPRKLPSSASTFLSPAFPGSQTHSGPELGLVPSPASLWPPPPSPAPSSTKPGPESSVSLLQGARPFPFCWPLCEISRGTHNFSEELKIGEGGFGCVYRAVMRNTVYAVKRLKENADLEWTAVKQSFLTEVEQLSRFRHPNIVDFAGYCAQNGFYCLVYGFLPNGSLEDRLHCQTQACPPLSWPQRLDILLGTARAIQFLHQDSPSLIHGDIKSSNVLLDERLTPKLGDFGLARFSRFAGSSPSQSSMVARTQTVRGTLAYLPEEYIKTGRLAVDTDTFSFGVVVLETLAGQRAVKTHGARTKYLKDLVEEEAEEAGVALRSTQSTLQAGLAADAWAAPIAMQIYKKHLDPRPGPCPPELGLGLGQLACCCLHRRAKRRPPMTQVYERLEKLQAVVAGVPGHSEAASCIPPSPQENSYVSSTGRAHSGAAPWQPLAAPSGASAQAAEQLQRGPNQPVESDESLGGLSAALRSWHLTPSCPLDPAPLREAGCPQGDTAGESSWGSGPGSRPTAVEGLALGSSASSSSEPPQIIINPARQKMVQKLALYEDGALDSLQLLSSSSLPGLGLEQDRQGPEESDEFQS

JNK2 = JNK2 (Homo sapiens, UniProt P45984); test: Biochemical JNK2 kinase inhibition (Z'-lyte format); conditions: Table 2
JNK2, sequence (P45984 whole entry): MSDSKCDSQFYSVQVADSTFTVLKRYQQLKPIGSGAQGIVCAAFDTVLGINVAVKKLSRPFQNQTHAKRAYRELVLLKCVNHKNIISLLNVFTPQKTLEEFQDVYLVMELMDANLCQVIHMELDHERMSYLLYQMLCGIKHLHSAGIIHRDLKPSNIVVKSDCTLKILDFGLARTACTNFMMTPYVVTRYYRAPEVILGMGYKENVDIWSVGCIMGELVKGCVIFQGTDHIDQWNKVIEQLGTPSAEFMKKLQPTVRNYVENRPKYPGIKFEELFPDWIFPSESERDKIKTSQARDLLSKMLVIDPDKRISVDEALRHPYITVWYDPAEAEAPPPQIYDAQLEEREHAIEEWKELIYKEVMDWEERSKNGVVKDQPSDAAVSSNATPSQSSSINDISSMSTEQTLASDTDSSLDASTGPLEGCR

[2] = molecular target: additional kinase targets; test: Follow-up enzymatic IC50 or Kd on potential additional kinase targets; conditions: further biochemical and binding assays
Text: Scores were obtained from the profiling against a […] using Kinome Scan™ technology as illustrated in FIG. 11.
To complement the KiNativ profiling, the in vitro kinase selectivity of several key compounds was comprehensively evaluated by two complementary approaches: a kinase-binding assays against a panel of 442 distinct kinases using the KINOMEscan methodology (DiscoverX) and a standard radioactivity-based enzymatic assays against a panel of 124 kinases (The National Centre for Protein Kinase Profiling in Dundee). […] It was attempted to confirm all these potent binding targets using either an enzymatic kinase assay or through the measurement of a dissociation constant to the kinase in question.

c-Jun phosphorylation = test: Western blot of anisomycin-stimulated phosphorylation in HEK293-IL1R cells; type: cell-based
Description: FIGS. 16A and 16B depict Western blot results. […] Cell lysates were prepared, resolved by SDS-PAGE, and p-c-Jun (Ser63) and p-JNK were monitored by Western blot.
HEK-293 cells stably expressing Interleukin Receptor 1 (HEK293-IL1R) were cultured in Dulbecco's Modified Eagle's medium (DMEM) supplemented with 10% FBS, 2 mM glutamine and 1× antimycotic/antibiotic solution. Cells were serum starved for 18 h before incubation with DMSO or different inhibitors, stimulated with 2 μM anisomycin (Sigma) for 1 h, and lysates were clarified by centrifugation for 10 min at 16000 g and 4° C.
Rabbit polyclonal antibodies against total pan JNK isoforms ((#9252), phospho-pan JNK isoforms (Thr183/Tyr185), (#4668), total p38 (#9212) or phospho-p38 MAPK (Thr180/Tyr182), (4631 resp.), total c-Jun (#9165), phospho-c-Jun (Ser63) (#9261), and phospho-MSK1 (Ser376) (#9591) were from Cell Signalling technology.
Cell lysates (30 μg) were resolved by electrophoresis on SDS polyacrylamide gels (10%) or Novex 4-12% gradient gels, and electroblotted to nitrocellulose membranes. Membranes were blocked with 5% skimmed milk (w/v) in 50 mM Tris/HCl (pH 7.5) 0.15 M NaCl, and 0.1% (v/v) Tween (TBST Buffer). Primary antibodies were used at a concentration of 1 μg/ml, diluted in 5% skimmed milk in TBST, and incubated overnight at 4° C. […]

AKT2, sequence (P31751 whole entry, species assumed): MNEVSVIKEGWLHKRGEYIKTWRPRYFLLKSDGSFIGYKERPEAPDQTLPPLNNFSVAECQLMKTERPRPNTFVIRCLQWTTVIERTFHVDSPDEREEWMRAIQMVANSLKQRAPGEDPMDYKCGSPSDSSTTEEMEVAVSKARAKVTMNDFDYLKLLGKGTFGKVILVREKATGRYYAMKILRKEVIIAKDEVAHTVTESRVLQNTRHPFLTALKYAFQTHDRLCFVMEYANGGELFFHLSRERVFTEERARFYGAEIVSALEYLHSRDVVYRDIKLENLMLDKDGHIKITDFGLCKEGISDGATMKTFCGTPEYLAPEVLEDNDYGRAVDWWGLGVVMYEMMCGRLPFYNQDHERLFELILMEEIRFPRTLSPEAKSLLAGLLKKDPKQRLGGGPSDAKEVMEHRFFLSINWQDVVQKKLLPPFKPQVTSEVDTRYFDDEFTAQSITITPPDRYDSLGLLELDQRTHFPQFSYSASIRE

KINOMEscan S score (ratio number of kinases inhibited more than 90 percent) [1]	pIC50 (AKT2)	IC50 (JNK1) [nM]	pIC50 (IRAK1)	IC50 (JNK2) [nM]	IC50 or Kd of any further target [2] [nM]	Structure (SMILES)	time for inhibition of JNK in cells to reach completion (c-Jun phosphorylation; HEK293-ILR1 cells (FIGS. 16A and 16B))	reversal of inhibition of c-Jun phosphorylation after removal of inhibitor (washout) (c-Jun phosphorylation; HEK293-ILR1 cells, three hours treatment then washout)
0.025	7.05	13	7.42	11.3	–	CN(C)C/C=C/C(=O)Nc1cccc(C(=O)Nc2ccc(Nc3nccc(/C(C#N)=C4\Nc5ccccc5S4)n3)cc2)c1 [JNK-IN-12]	–	–
–	–	–	–	–	≥ 1000	Cc1cc(NC(=O)c2cccc(NC(=O)/C=C/CN(C)C)c2)ccc1Nc1nccc(-c2cccnc2)n1 [JNK-IN-8]	approximately 3 hours	not reversed
